Measured values: publication PMC5618429, “Kempopeptin C, a Novel Marine-Derived Serine Protease Inhibitor Targeting Invasive Breast Cancer” (Marine Drugs, 2017)

What was measured:
[1] = system: CDCP1 cleavage in MDA-MB-231 cells; assay: Cleavage of CDCP1 in MDA-MB-231 cells (Western blot); assay type: cell-based
Protocol: The experiment was performed by treating MDA-MB-231 cells with different concentrations of either kempopeptin B (2) or C (3) for 72 h (Figure 6A). Dexamethasone (Dex) 100 nM was used as a positive control.
Figure 6 The effect of kempopeptins B and C (2 and 3) on CDCP1 cleavage in MDA-MB-231. (A) MDA-MB-231 cells were treated for 72 h with different concentrations of the test compounds. Following 72 h, the lysates were collected and analyzed by Western blot. (B) MDA-MB-231 cells were treated at different time points with 100 µM of kempopeptin C (3). Following 6 h, 12 h and 24 h, the lysates were collected and analyzed by Western blot. Dexamethasone (Dex) was used as a positive control. (C) MDA-MB-231 cells treated for 24 h with different concentrations of 3 in the presence of 10 nM recombinant human matriptase. Cell lysates were harvested and analyzed by Western blot. (D) Densitometric analysis of the full-length, LMW of CDCP1 and actin bands in (C).
MDA-MB-231 cells (150,000 cells/well) were seeded in 12-well plates. After 24 h, the media were replaced, and cells were treated with different concentrations of inhibitors (2 or 3; prepared in DMSO), the solvent control or the positive control dexamethasone. Whole-cell protein lysates were collected after 6, 12, 24 and 72 h using PhosphoSafe lysis buffer (Novagen, Madison, USA) and the protein concentration measured using the BCA Protein Assay kit (Pierce; 23227; Thermofisher Scientific; Waltham, MA, USA). Twenty micrograms of protein were separated by SDS-PAGE, transferred to polyvinylidene difluoride (PVDF) membranes, probed with CDCP1 antibody (Cell Signaling; 4115S) and detected with SuperSignal West Femto Maximum Sensitivity Substrate (Pierce).

[2] = biological target: T1, recombinant human matriptase (Homo sapiens, UniProt Q9Y5Y6); assay: In vitro cleavage of CDCP1 by matriptase (SDS-PAGE, silver stain); assay type: biochemical; settings: enzyme to substrate ratio 1:5, pH 9.0, 37 °C, 30 min and 2 h, 10‒0.01 µM inhibitor, qualitative
T1 construct: purchased R&D Systems 3946-SE-010
T1 sequence (Q9Y5Y6 615-855 limits assumed): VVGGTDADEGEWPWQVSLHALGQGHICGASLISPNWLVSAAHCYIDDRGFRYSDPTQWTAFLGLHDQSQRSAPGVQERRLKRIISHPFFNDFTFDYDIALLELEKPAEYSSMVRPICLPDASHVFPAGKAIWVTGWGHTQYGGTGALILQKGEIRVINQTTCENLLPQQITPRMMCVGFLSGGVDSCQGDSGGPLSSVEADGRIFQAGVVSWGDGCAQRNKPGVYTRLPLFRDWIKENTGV
Description: Due to the significance of these proteases in cancer progression and metastasis, as well as their functional redundancy with respect to targeting overlapping substrates, we focused our studies on examining the effect of kempopeptin C (3) on the downstream cellular substrates of matriptase. Due to the limited amount of 3, our study aimed to provide a qualitative preliminary characterization of CDCP1 and Dsg-2 cleavage inhibition by kempopeptin C (3). […] CDCP1 is considered a potential prognostic marker with expression levels found to correlate with the recurrence and survival rate of cancer patients. […] The exact mechanism regulating the generation of the LMW fragment is poorly understood; however, there is evidence for the involvement of serine protease proteolytic activity. Several studies provided evidence for serine protease-mediated (trypsin, plasmin and matriptase) cleavage of CDCP1 [15, 38]. Therefore, we examined the ability of recombinant human matriptase to cleave CDCP1 in vitro and assessed the effect of kempopeptin C (3) on inhibiting/reducing this cleavage. Recombinant human matriptase was incubated with CDCP1 (final molar ratio 1:5) at different time points (30 min and 2 h) at 37 °C in the presence of varying concentrations of kempopeptin C (3) or solvent control (Figure 4A,B). […] LMW fragments were more readily detected at longer incubation times (2 h). […]

For `CCCC(=O)NC(C(=O)NC1C(=O)NC(CCCCN)C(=O)NC2CCC(O)N(C2=O)C(C(C)CC)C(=O)N(C)C(Cc2ccc(OC)c(Cl)c2)C(=O)NC(C(C)C)C(=O)OC1C)C(C)C` (stereo not shown) [Kempopeptin C, kempopeptin C], the “Inhibition of CDCP1 cleavage in MDA-MB-231” value ([1]; 100 µM, 6, 12 and 24 h) was “no inhibition of CDCP1 cleavage was detected”, the “Inhibition of CDCP1 cleavage in MDA-MB-231” value ([1]; 72 h, different concentrations) was “No inhibition of CDCP1 cleavage was observed” and the “Inhibition of in vitro cleavage of CDCP1 by matriptase” value [2] was “inhibit the cleavage”. For the same compound, the “Inhibition of in vitro cleavage of CDCP1 by matriptase” value ([2]; listed as Kempopeptin C (3)) was “able to only minimize the cleavage at 10 µM”.
